Measured values taken from ChEMBL document CHEMBL1212758 (Antimicrob Agents Chemother, 2010).

Columns and labels:
[1] = system: Macacine alphaherpesvirus 1; test: Ratio of acyclovir EC50 to compound EC50 for Macacine herpesvirus 1 isolate MR7 infected in african green monkey Vero cells; type: functional
[2] = system: Macacine alphaherpesvirus 1; test: Ratio of acyclovir EC50 to compound EC50 for Macacine herpesvirus 1 isolate A5 infected in african green monkey Vero cells; type: functional
[3] = system: Macacine alphaherpesvirus 1; test: Ratio of acyclovir EC50 to compound EC50 for Macacine herpesvirus 1 isolate MR9 infected in african green monkey Vero cells; type: functional
[4] = system: Macacine alphaherpesvirus 1; test: Ratio of acyclovir EC50 to compound EC50 for Macacine herpesvirus 1 isolate MR8 infected in african green monkey Vero cells; type: functional
[5] = system: Macacine alphaherpesvirus 1; test: Ratio of acyclovir EC50 to compound EC50 for Macacine herpesvirus 1 isolate MR5 infected in african green monkey Vero cells; type: functional
[6] = system: Macacine alphaherpesvirus 1; test: Ratio of acyclovir EC50 to compound EC50 for Macacine herpesvirus 1 isolate E2490 infected in african green monkey Vero cells; type: functional
[7] = system: Macacine alphaherpesvirus 1; test: Ratio of acyclovir EC50 to compound EC50 for Macacine herpesvirus 1 isolate MJ2 infected in african green monkey Vero cells; type: functional
[8] = system: Macacine alphaherpesvirus 1; test: Ratio of acyclovir EC50 to compound EC50 for Macacine herpesvirus 1 isolate A4 infected in african green monkey Vero cells; type: functional
[9] = system: Macacine alphaherpesvirus 1; test: Ratio of acyclovir EC50 to compound EC50 for Macacine herpesvirus 1 isolate MR10 infected in african green monkey Vero cells; type: functional
Human alphaherpesvirus 2 [10] = test: Ratio of acyclovir EC50 to compound EC50 for HSV 2 infected in african green monkey Vero cells; type: functional
[11] = system: Macacine alphaherpesvirus 1; test: Ratio of acyclovir EC50 to compound EC50 for Macacine herpesvirus 1 isolate MJ3 infected in african green monkey Vero cells; type: functional
[12] = system: Macacine alphaherpesvirus 1; test: Ratio of acyclovir EC50 to compound EC50 for Macacine herpesvirus 1 isolate MR1 infected in african green monkey Vero cells; type: functional
[13] = system: Macacine alphaherpesvirus 1; test: Ratio of acyclovir EC50 to compound EC50 for Macacine herpesvirus 1 isolate MR11 infected in african green monkey Vero cells; type: functional
[14] = system: Macacine alphaherpesvirus 1; test: Ratio of acyclovir EC50 to compound EC50 for Macacine herpesvirus 1 isolate A2 infected in african green monkey Vero cells; type: functional
Human alphaherpesvirus 1 [15] = test: Ratio of acyclovir EC50 to compound EC50 for HSV1 infected in african green monkey Vero cells; type: functional
[16] = system: Macacine alphaherpesvirus 1; test: Ratio of acyclovir EC50 to compound EC50 for Macacine herpesvirus 1 isolate MJ1 infected in african green monkey Vero cells; type: functional
[17] = system: Macacine alphaherpesvirus 1; test: Ratio of acyclovir EC50 to compound EC50 for Macacine herpesvirus 1 isolate A6 infected in african green monkey Vero cells; type: functional
[18] = system: Macacine alphaherpesvirus 1; test: Ratio of acyclovir EC50 to compound EC50 for Macacine herpesvirus 1 isolate MC1 infected in african green monkey Vero cells; type: functional
[19] = system: Macacine alphaherpesvirus 1; test: Ratio of acyclovir EC50 to compound EC50 for Macacine herpesvirus 1 isolate MR3 infected in african green monkey Vero cells; type: functional
[20] = system: Macacine alphaherpesvirus 1; test: Ratio of acyclovir EC50 to compound EC50 for Macacine herpesvirus 1 isolate A1 infected in african green monkey Vero cells; type: functional
[21] = system: Macacine alphaherpesvirus 1; test: Ratio of acyclovir EC50 to compound EC50 for Macacine herpesvirus 1 isolate MR2 infected in african green monkey Vero cells; type: functional
[22] = system: Macacine alphaherpesvirus 1; test: Ratio of acyclovir EC50 to compound EC50 for Macacine herpesvirus 1 isolate MP1 infected in african green monkey Vero cells; type: functional
[23] = system: Macacine alphaherpesvirus 1; test: Ratio of acyclovir EC50 to compound EC50 for Macacine herpesvirus 1 isolate MR6 infected in african green monkey Vero cells; type: functional
[24] = system: Macacine alphaherpesvirus 1; test: Ratio of acyclovir EC50 to compound EC50 for Macacine herpesvirus 1 isolate MC2 infected in african green monkey Vero cells; type: functional
[25] = system: Macacine alphaherpesvirus 1; test: Ratio of acyclovir EC50 to compound EC50 for Macacine herpesvirus 1 isolate MR4 infected in african green monkey Vero cells; type: functional
[26] = system: Macacine alphaherpesvirus 1; test: Ratio of acyclovir EC50 to compound EC50 for Macacine herpesvirus 1 isolate A3 infected in african green monkey Vero cells; type: functional
[27] = system: Macacine alphaherpesvirus 1; test: Antiviral activity against Macacine herpesvirus 1 isolate MP1 infected in african green monkey Vero cells by plaque reduction assay; type: functional, organism-based; settings: Macacine alphaherpesvirus 1, isolate MP1, Vero
[28] = system: Macacine alphaherpesvirus 1; test: Antiviral activity against Macacine herpesvirus 1 isolate MR3 infected in african green monkey Vero cells by plaque reduction assay; type: functional, organism-based; settings: Macacine alphaherpesvirus 1, isolate MR3, Vero
[29] = system: Macacine alphaherpesvirus 1; test: Antiviral activity against Macacine herpesvirus 1 isolate MR4 infected in african green monkey Vero cells by plaque reduction assay; type: functional, organism-based; settings: Macacine alphaherpesvirus 1, isolate MR4, Vero
[30] = system: Macacine alphaherpesvirus 1; test: Antiviral activity against Macacine herpesvirus 1 isolate MR9 infected in african green monkey Vero cells by plaque reduction assay; type: functional, organism-based; settings: Macacine alphaherpesvirus 1, isolate MR9, Vero
[31] = system: Macacine alphaherpesvirus 1; test: Antiviral activity against Macacine herpesvirus 1 isolate MR10 infected in african green monkey Vero cells by plaque reduction assay; type: functional, organism-based; settings: Macacine alphaherpesvirus 1, isolate MR10, Vero
Human alphaherpesvirus 1 [32] = test: Antiviral activity against HSV1 infected in african green monkey Vero cells by plaque reduction assay; type: functional, organism-based; settings: Human alphaherpesvirus 1, Vero
[33] = system: Macacine alphaherpesvirus 1; test: Antiviral activity against Macacine herpesvirus 1 isolate MR2 infected in african green monkey Vero cells by plaque reduction assay; type: functional, organism-based; settings: Macacine alphaherpesvirus 1, isolate MR2, Vero
[34] = system: Macacine alphaherpesvirus 1; test: Antiviral activity against Macacine herpesvirus 1 isolate MJ3 infected in african green monkey Vero cells by plaque reduction assay; type: functional, organism-based; settings: Macacine alphaherpesvirus 1, isolate MJ3, Vero
[35] = system: Macacine alphaherpesvirus 1; test: Antiviral activity against Macacine herpesvirus 1 isolate MC1 infected in african green monkey Vero cells by plaque reduction assay; type: functional, organism-based; settings: Macacine alphaherpesvirus 1, isolate MC1, Vero
[36] = system: Macacine alphaherpesvirus 1; test: Antiviral activity against Macacine herpesvirus 1 isolate MJ2 infected in african green monkey Vero cells by plaque reduction assay; type: functional, organism-based; settings: Macacine alphaherpesvirus 1, isolate MJ2, Vero
[37] = system: Macacine alphaherpesvirus 1; test: Antiviral activity against Macacine herpesvirus 1 isolate MJ1 infected in african green monkey Vero cells by plaque reduction assay; type: functional, organism-based; settings: Macacine alphaherpesvirus 1, isolate MJ1, Vero
[38] = system: Macacine alphaherpesvirus 1; test: Antiviral activity against Macacine herpesvirus 1 isolate A5 infected in african green monkey Vero cells by plaque reduction assay; type: functional, organism-based; settings: Macacine alphaherpesvirus 1, isolate A5, Vero
[39] = system: Macacine alphaherpesvirus 1; test: Antiviral activity against Macacine herpesvirus 1 isolate A6 infected in african green monkey Vero cells by plaque reduction assay; type: functional, organism-based; settings: Macacine alphaherpesvirus 1, isolate A6, Vero
[40] = system: Macacine alphaherpesvirus 1; test: Antiviral activity against Macacine herpesvirus 1 isolate MR1 infected in african green monkey Vero cells by plaque reduction assay; type: functional, organism-based; settings: Macacine alphaherpesvirus 1, isolate MR1, Vero
[41] = system: Macacine alphaherpesvirus 1; test: Antiviral activity against Macacine herpesvirus 1 infected in rabbits assessed as survival after 5 months; type: functional
[42] = system: Macacine alphaherpesvirus 1; test: Antiviral activity against Macacine herpesvirus 1 isolate A1 infected in african green monkey Vero cells by plaque reduction assay; type: functional, organism-based; settings: Macacine alphaherpesvirus 1, isolate A1, Vero
[43] = system: Macacine alphaherpesvirus 1; test: Antiviral activity against Macacine herpesvirus 1 isolate A3 infected in african green monkey Vero cells by plaque reduction assay; type: functional, organism-based; settings: Macacine alphaherpesvirus 1, isolate A3, Vero
[44] = system: Macacine alphaherpesvirus 1; test: Antiviral activity against Macacine herpesvirus 1 isolate E2490 infected in african green monkey Vero cells by plaque reduction assay; type: functional, organism-based; settings: Macacine alphaherpesvirus 1, isolate E2490, Vero
[45] = system: Macacine alphaherpesvirus 1; test: Antiviral activity against Macacine herpesvirus 1 isolate MR11 infected in african green monkey Vero cells by plaque reduction assay; type: functional, organism-based; settings: Macacine alphaherpesvirus 1, isolate MR11, Vero
[46] = system: Macacine alphaherpesvirus 1; test: Antiviral activity against Macacine herpesvirus 1 isolate MR5 infected in african green monkey Vero cells by plaque reduction assay; type: functional, organism-based; settings: Macacine alphaherpesvirus 1, isolate MR5, Vero
[47] = system: Macacine alphaherpesvirus 1; test: Antiviral activity against Macacine herpesvirus 1 isolate MR7 infected in african green monkey Vero cells by plaque reduction assay; type: functional, organism-based; settings: Macacine alphaherpesvirus 1, isolate MR7, Vero
[48] = system: Macacine alphaherpesvirus 1; test: Antiviral activity against Macacine herpesvirus 1 isolate A4 infected in african green monkey Vero cells by plaque reduction assay; type: functional, organism-based; settings: Macacine alphaherpesvirus 1, isolate A4, Vero
[49] = system: Macacine alphaherpesvirus 1; test: Antiviral activity against Macacine herpesvirus 1 isolate A2 infected in african green monkey Vero cells by plaque reduction assay; type: functional, organism-based; settings: Macacine alphaherpesvirus 1, isolate A2, Vero
[50] = system: Macacine alphaherpesvirus 1; test: Antiviral activity against Macacine herpesvirus 1 isolate MC2 infected in african green monkey Vero cells by plaque reduction assay; type: functional, organism-based; settings: Macacine alphaherpesvirus 1, isolate MC2, Vero
Human alphaherpesvirus 2 [51] = test: Antiviral activity against HSV2 infected in african green monkey Vero cells by plaque reduction assay; type: functional, organism-based; settings: Human alphaherpesvirus 2, Vero
[52] = system: Macacine alphaherpesvirus 1; test: Antiviral activity against Macacine herpesvirus 1 isolate MR8 infected in african green monkey Vero cells by plaque reduction assay; type: functional, organism-based; settings: Macacine alphaherpesvirus 1, isolate MR8, Vero
[53] = system: Macacine alphaherpesvirus 1; test: Antiviral activity against Macacine herpesvirus 1 isolate MR6 infected in african green monkey Vero cells by plaque reduction assay; type: functional, organism-based; settings: Macacine alphaherpesvirus 1, isolate MR6, Vero

Cc1cn([C@H]2O[C@@H](CO)[C@H](O)[C@H]2F)c(=O)[nH]c1=O [CLEVUDINE]
100: Ratio EC50 [1] | Ratio EC50 [2] | Ratio EC50 [3] | Ratio EC50 [4] | Ratio EC50 [5] | Ratio EC50 [6] | Ratio EC50 [7] | Ratio EC50 [8] | Ratio EC50 [9] | Ratio EC50 (Human alphaherpesvirus 2 [10]) | Ratio EC50 [11] | Ratio EC50 [12] | Ratio EC50 [13] | Ratio EC50 [14] | Ratio EC50 (Human alphaherpesvirus 1 [15]) | Ratio EC50 [16] | Ratio EC50 [17] | Ratio EC50 [18] | Ratio EC50 [19] | Ratio EC50 [20] | Ratio EC50 [21] | Ratio EC50 [22] | Ratio EC50 [23] | Ratio EC50 [24] | Ratio EC50 [25] | Ratio EC50 [26]

Cc1cn([C@@H]2O[C@H](CO)[C@@H](O)[C@@H]2F)c(=O)nc1N
10: Ratio EC50 [1] | Ratio EC50 [2] | Ratio EC50 [3] | Ratio EC50 [4] | Ratio EC50 [5] | Ratio EC50 [6] | Ratio EC50 [7] | Ratio EC50 [8] | Ratio EC50 [9] | Ratio EC50 (Human alphaherpesvirus 2 [10]) | Ratio EC50 [11] | Ratio EC50 [12] | Ratio EC50 [13] | Ratio EC50 [14] | Ratio EC50 (Human alphaherpesvirus 1 [15]) | Ratio EC50 [16] | Ratio EC50 [17] | Ratio EC50 [18] | Ratio EC50 [19] | Ratio EC50 [20] | Ratio EC50 [21] | Ratio EC50 [22] | Ratio EC50 [23] | Ratio EC50 [24] | Ratio EC50 [25] | Ratio EC50 [26]

Nc1nc2c(ncn2COCCO)c(=O)[nH]1 [ACYCLOVIR]
19.3 µM: EC50 [27] | EC50 [28] | EC50 [29] | EC50 [30] | EC50 [31] | EC50 (Human alphaherpesvirus 1 [32]) | EC50 [33] | EC50 [34] | EC50 [35] | EC50 [36] | EC50 [37] | EC50 [38] | EC50 [39] | EC50 [40] | EC50 [42] | EC50 [43] | EC50 [44] | EC50 [45] | EC50 [46] | EC50 [47] | EC50 [48] | EC50 [49] | EC50 [50] | EC50 (Human alphaherpesvirus 2 [51]) | EC50 [52] | EC50 [53]
33%: Activity [41]

CCc1cn([C@H]2O[C@@H](CO)[C@H](O)[C@H]2F)c(=O)[nH]c1=O (single isomer, unassigned)
100: Ratio EC50 [1] | Ratio EC50 [2] | Ratio EC50 [3] | Ratio EC50 [4] | Ratio EC50 [5] | Ratio EC50 [6] | Ratio EC50 [7] | Ratio EC50 [8] | Ratio EC50 [9] | Ratio EC50 (Human alphaherpesvirus 2 [10]) | Ratio EC50 [11] | Ratio EC50 [12] | Ratio EC50 [13] | Ratio EC50 [14] | Ratio EC50 (Human alphaherpesvirus 1 [15]) | Ratio EC50 [16] | Ratio EC50 [17] | Ratio EC50 [18] | Ratio EC50 [19] | Ratio EC50 [20] | Ratio EC50 [21] | Ratio EC50 [22] | Ratio EC50 [23] | Ratio EC50 [24] | Ratio EC50 [25] | Ratio EC50 [26]
